Data published in patent publication US8778871B2 (Takeda Pharmaceutical Company Limited, priority 2004, dated 2014).
Non-standard residues stand in square brackets, D forms with d. Residues, ends and D or L forms follow the SMILES beside them. No end group written: not given here. *: point of attachment. Phe(4-F) = N[C@@H](Cc1ccc(F)cc1)C(=O)O; Arg(Me) = CNC(=N)NCCC[C@H](N)C(=O)O; Hydrocinnamoyl = O=C(CCc1ccccc1)*; Butyryl = CCCC(=O)*; Bz = O=C(c1ccccc1)*; GABA = NCCCC(=O)O; azaGly = NNC(=O)O; βAla = NCCC(=O)O

Experiments:
hOT7T175 [1] = molecular target: T1, hOT7T175 (Homo sapiens, UniProt Q969F8, L364H); assay type: cell-based; conditions: hOT7T175/CHO, FLIPR, evaluation for 40 seconds after initiation of the reaction
T1 construct: expressed in transfected cells
Experimental: The intracellular Ca ion level-increasing activity was measured using FLIPR as in TEST EXAMPLE 2.

[2] = Blood testosterone level decreasing effect in mature male rat (0.1 mM peptide solution); assay type: in vivo
Experimental: (§1) This peptide solution was filled in 5 ALZET osmotic pumps (Model 2001, 0.2 ml in volume, release rate: 0.001 ml/hr, DURECT Corporation). The ALZET pumps filled with the peptide solution were implanted subcutaneously in 5 CD(SD)IGS male rats of 9 weeks old after birth (Charles River Japan, Inc.) on the back under ether anesthesia by one pump for one animal. For negative control, distilled water (Otsuka Pharmaceutical Co., Ltd.) was filled in 5 ALZET osmotic pumps, which were similarly implanted in 5 male CD(SD)IGS rats (Charles River Japan, Inc.), respectively. These pump-implanted rats were fed for 6 days under normal feeding conditions. After weighing, the animal was decapitated to collect blood. After 0.03 ml/ml blood of aprotinin solution (Trasylol, Bayer) containing 0.1 mg/ml EDTA.2Na was added to blood, the mixture was centrifuged at 1,800 G for 25 minutes to isolate/recover plasma. From the plasma obtained, 0.05 ml was applied to radioimmunoassay (DPC.Total Testosterone Kit, Diagnostic Products Corporation) to measure the plasma testosterone level of each rat. The value below the limit of measurement (0.04 ng/ml of plasma level) in radioimmunoassay was treated as 0. A mean value of the testosterone levels from 5 rats receiving the peptide was calculated and a relative value (percent) of the mean value to a mean value from 5 rats receiving distilled water.
In a manner similar to TEST EXAMPLE 14, evaluation was made using 0.1 mM peptide solution and a part of the results obtained are shown in TABLE 30.

hOT7T175 [3] = molecular target: T2, hOT7T175 (Homo sapiens, UniProt Q969F8); assay: Intracellular Ca ion level-increasing activity using FLIPR (180 seconds; specific activity to Metastin (1-54)); assay type: cell-based; conditions: hOT7T175/CHO, change in intracellular calcium ion level for 180 seconds, Tables 21-23
T2 construct: expressed in transfected cells

[4] = Blood testosterone level decreasing effect in mature male rat (2 mM peptide solution, ALZET osmotic pump); assay type: in vivo; conditions: 2 mM peptide solution in distilled water, ALZET osmotic pump s.c., 6 days, Tables 28 and 29
Experimental: as §1

[5] = Action of reducing testosterone level in blood in mature male rat (1 mM peptide in 50% DMSO, ALZET osmotic pump); assay type: in vivo; conditions: 1 mM peptide in 50% DMSO aqueous solution, ALZET osmotic pump s.c., six days
Experimental: The peptide was encapsulated in five ALZET osmotic pump (Model 2001, 0.2 ml of volume, releasing rate 0.001 ml/hr, DURECT Corporation). The ALZET pumps encapsulated with the peptide solution were implanted to dorsal subcutaneous of five male CD (SD) IGS rat at nine weeks age (Charles River Japan, Inc.) anesthesized with ether for one pump to one rat. Separately, for negative controls, the ALZET osmotic pumps encapsulated with distilled water were implanted to five male CD (SD) IGS rat (Charles River Japan, Inc.) The rats were bred for six days under the normal conditions. After weighing, blood was collected by decapitation. To 1 ml of blood, 0.03 ml of aprotinin (Trasylol, Byer) solution containing 0.1 g/ml EDTA 2Na was added. The plasma was isolated by centrifugation at 1,800×g for 25 minutes and collected. The thus obtained plasma, 0.05 ml was effected by radioimmunoassay. (DPC Total Testosterone Kit, Diagnostic Products Corporation) to measure testosterone level in blood of each rat. The value beneath measuring limit of radioimmunoassay (0.04 ng/ml as concentration of plasma) was treated as zero. The mean values for testosterone level of five rats, to which the peptide was given, was calculated and the relative value (percentage) for the mean values of testosterone level of five rats, to which distilled watrer was given, was estimated.

hOT7T175 [6] = molecular target: T1, hOT7T175; assay: Intracellular Ca ion level-increasing activity using FLIPR (180 seconds; specific activity to Metastin (1-54)); assay type: cell-based; conditions: hOT7T175/CHO, relative to Metastin (1-54) = 1

T1 sequence (Q969F8 whole entry L364H): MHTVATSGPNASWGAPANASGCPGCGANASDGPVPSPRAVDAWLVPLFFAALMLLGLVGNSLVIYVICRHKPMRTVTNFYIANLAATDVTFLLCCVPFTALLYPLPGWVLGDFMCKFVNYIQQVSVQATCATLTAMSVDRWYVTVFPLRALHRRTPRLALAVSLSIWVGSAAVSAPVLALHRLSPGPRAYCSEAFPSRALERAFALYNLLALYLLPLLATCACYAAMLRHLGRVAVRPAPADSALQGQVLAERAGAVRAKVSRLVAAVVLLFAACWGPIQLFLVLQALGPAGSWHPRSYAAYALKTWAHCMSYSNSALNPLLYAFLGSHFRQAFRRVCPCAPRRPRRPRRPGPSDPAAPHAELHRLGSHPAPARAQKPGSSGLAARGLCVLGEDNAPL
T2 sequence (Q969F8 whole entry L364H): as above

Row | Compound | Specific Act. (EC50/MS10 EC50) (hOT7T175 [1]) | Teststerone level in Blood [2] [%] | intracellular Ca ion level-increasing activity [specific activity to Metastin (1-54)] (hOT7T175 [3]) | Teststerone level in Blood [4] [%] | Testosterone level in Blood [5] [%] | Specific Act. (intracellular Ca ion level-increasing activity, specific activity to Metastin (1-54)) (hOT7T175 [6])
1 | D-Tyr-D-Pya(4)-Asn-Ser(Ac)-Phe-AzaGly-Leu-Arg(Me)-Trp-NH2 [Compound No. 547] | 2.5 | 65 |  |  |  | 
2 | 3-(3-Pyridyl)propionyl-Asn-Ser-Phe-AzaGly-Leu-Arg(Me)-Trp-NH2 [Compound No. 386] | 2.9 |  | 7 | 23 |  | 
3 | 4-Pyridinecarbonyl-Phe-AzaGly-Leu-Arg(Me)-Trp-NH2 [Compound No. 436] | 1.4 |  | 5 | 35 |  | 
4 | Ac-[dY][dW]NTF[azaGly]L[Arg(Me)]W-NH2 [Compound No. 550] | 0.7 | 2 |  |  |  | 
5 | [dR][βAla][dY][dW]NTF[azaGly]L[Arg(Me)]W-NH2 [Compound No. 554] | 1.3 | 52 |  |  |  | 
6 | Bz-NSF[azaGly]L[Arg(Me)]W-NH2 [Compound No. 509] | 2.0 |  | 20 | 2 |  | 
7 | Ac-[dY][dW]NTF[azaGly]L[Arg(Me)]F-NH2 [Compound No. 571] | 1.2 | 17 |  |  |  | 
8 | 3-Phenylpropionyl-Asn-Ser-Phe(4F)-AzaGly-Leu-Arg(Me)-Trp-NH2 [Compound No. 508] | 1.0 |  | 10 | 9 |  | 
9 | D-Tyr-D-Pya(4)-Asn-Ser-Cha-Gly-Leu-Arg(Me)-Trp-NH2 [Compound No. 496] | 0.7 |  | 5 | 3 |  | 
10 | Arg-Acp-D-Tyr-D-Pya(4)-Asn-Ser-Phe-AzaGly-Leu-Arg(Me)-Trp-NH2 [Compound No. 538] | 3.3 | 45 |  |  |  | 
11 | Ac-[dY][dW]NVF[azaGly]L[Arg(Me)]W-NH2 [Compound No. 564] | 0.5 | 66 |  |  | 2 | 
12 | 3-Phenylpropionyl-Asn-Hyp-Phe-AzaGly-Leu-Arg(Me)-Trp-NH2 [Compound No. 517] | 1.0 |  |  | 79 |  | 
13 | D-Dap-Acp-D-Tyr-D-Trp-Asn-Thr-Phe-AzaGly-Leu-Arg(Me)-Trp-NH2 [Compound No. 552] | 2.3 | 21 |  |  |  | 
14 | Bz-[dY][dW]NTF[azaGly]L[Arg(Me)]W-NH2 [Compound No. 565] | 0.6 | 80 |  |  |  | 
15 | Ac-D-Tyr-D-Pya(4)-Asn-Thr-Phe-AzaGly-Leu-Arg(Me)-Trp-NH2 [Compound No. 562] | 1.0 | 11 |  |  |  | 
16 | Ac-[dY][dW]NSF[azaGly]L[Arg(Me)]W-NH2 [Compound No. 558] | 0.4 | 2 |  |  |  | 
17 | H-YNWNSFGLRW-NH2 [Compound No. 134] | 0.5 |  |  | 50 |  | 30

Row | Compound | Specific Act. (EC50/MS10 EC50) (hOT7T175 [1]) | Teststerone level in Blood [2] [%] | intracellular Ca ion level-increasing activity [specific activity to Metastin (1-54)] (hOT7T175 [3]) | Teststerone level in Blood [4] [%] | Testosterone level in Blood [5] [%] | Specific Act. (intracellular Ca ion level-increasing activity, specific activity to Metastin (1-54)) (hOT7T175 [6])
18 | Ac-D-Arg-Acp-D-Tyr-D-Trp-Asn-Thr-Phe-AzaGly-Leu-Arg(Me)-Trp-NH2 [Compound No. 551] | 1.2 | 8 |  |  |  | 
19 | Cyclopropanecarbonyl-D-Tyr-D-Trp-Asn-Thr-Phe-AzaGly-Leu-Arg(Me)-Trp-NH2 [Compound No. 566] | 0.8 | 89 |  |  |  | 
20 | 3-(4-Hydroxyphenyl)propionyl-D-Trp-Asn-Thr-Phe-AzaGly-Leu-Arg(Me)-Trp-NH2 [Compound No. 559] | 0.3 | 17 |  |  |  | 
21 | CNC(=N)NCCC[C@H](NC(=O)[C@H](CC(C)C)NC(=O)CNC(=O)[C@H](Cc1ccccc1)NC(=O)[C@H](CO)NC(=O)[C@H](CC(N)=O)NC(=O)[C@H](Cc1c[nH]c2ccccc12)NC(=O)[C@H](CC(N)=O)NC(=O)[C@H](N)Cc1ccc(O)cc1)C(=O)N[C@@H](Cc1ccccc1)C(N)=O [Compound No. 141] | 1.6 |  |  | 31 |  | 10
22 | GuAmb-Phe-AzaGly-Leu-Arg(Me)-Trp-NH2 [Compound No. 334] |  |  |  | 40 |  | 
23 | D-Tyr-D-Pya(4)-Ala-Ser-Phe-AzaGly-Leu-Arg(Me)-Trp-NH2 [Compound No. 492] | 1.1 |  | 5 | 65 |  | 
24 | D-Nle-Acp-D-Tyr-D-Trp-Asn-Thr-Phe-AzaGly-Leu-Arg(Me)-Trp-NH2 [Compound No. 553] | 1.9 | 39 |  |  |  | 
25 | Bz-NS[Phe(4-F)][azaGly]L[Arg(Me)]W-NH2 [Compound No. 545] | 1.1 | 37 |  |  | 2 | 
26 | CNC(=N)NCCC[C@H](NC(=O)[C@H](CC(C)C)NC(=O)NNC(=O)[C@H](Cc1ccccc1)NC(=O)[C@H](CO)NC(=O)[C@H](CC(N)=O)NC(=O)CCc1ccccc1)C(=O)N[C@@H](Cc1ccccc1)C(N)=O [Compound No. 269, 3-Phenylpropionyl-Asn-Ser-Phe-AzaGly-Leu-Arg(Me)-Phe-NH2] (Hydrocinnamoyl-NSF[azaGly]L[Arg(Me)]F-NH2) | 3.4 |  | 3 | 7 |  | 
27 | D-Tyr-D-Pya(4)-Asn-Val-Phe-AzaGly-Leu-Arg(Me)-Trp-NH2 [Compound No. 515] | 1.0 |  | 10 | 2 |  | 
28 | Butyryl-[dY][dW]NTF[azaGly]L[Arg(Me)]W-NH2 [Compound No. 567] | 0.8 | 86 |  |  |  | 
29 | [dR][GABA][dY][dW]NTF[azaGly]L[Arg(Me)]W-NH2 [Compound No. 555] | 1.5 | 73 |  |  | 2 | 
30 | Bz-NT[Phe(4-F)][azaGly]L[Arg(Me)]W-NH2 [Compound No. 523] | 1.1 | 72 |  |  |  | 
31 | Ac-D-Tyr-D-Pya(4)-Asn-Ser-Phe-AzaGly-Leu-Arg(Me)-Phe-NH2 [Compound No. 516] | 3.7 | 3 |  |  |  | 
32 | [dY][dW]NSF[azaGly]L[Arg(Me)]W-NH2 [Compound No. 540] | 0.7 | 55 |  |  |  | 
33 | 3-Phenylpropionyl-Asn-Thr-Phe-AzaGly-Leu-Arg(Me)-Trp-NH2 [Compound No. 505] | 0.7 |  | 20 | 40 |  | 
34 | 3-(3-Indolyl)propionyl-Phe-AzaGly-Leu-Arg(Me)-Trp-NH2 [Compound No. 354] | 0.8 |  | 10 | 43 |  | 
